Measured values taken from US4205170A, “Propionic acid derivatives” (priority 1976, dated 1980).
Like-named read-outs stand apart in the source and are kept apart here.

System: edema in the hind paws (carrageenan)
Experiment: carrageenan-induced hind paw edema, oral administration
Format: in vivo, male Wistar rats
Settings: Rattus norvegicus; for inhibition in vivo at 8 mg/kg: 8 mg/kg orally; for inhibition in vivo at 5 mg/kg: 5 mg/kg orally
Procedure: That is, male Wistar rats weighing about 100 g, one group consisting of 5 to 7 animals, were given orally the compounds according to the present invention and then edema was induced in the hind paws by subcutaneous injections of 0.1 ml of 1% carrageenan 1 hour after the administration of the test compounds, and the volumes of the hind paws were measured by a volume differential meter.

[1] = 1 h, read-out: Inhibition (%) 1 hr
[2] = 2 h, read-out: Inhibition (%) 2 hr
[3] = 3 h, read-out: Inhibition (%) 3 hr
[4] = 4 h, read-out: Inhibition (%) 4 hr
[5] = 5 h, read-out: Inhibition (%) 5 hr
[6] = 6 h, read-out: Inhibition (%) 6 hr
[7] = 10 mg/kg orally, 1 hr, read-out: Inhibition (%) 1 hr
[8] = 10 mg/kg orally, 2 hr, read-out: Inhibition (%) 2 hr
[9] = 10 mg/kg orally, 3 hr, read-out: Inhibition (%) 3 hr
[10] = 10 mg/kg orally, 4 hr, read-out: Inhibition (%) 4 hr
[11] = 10 mg/kg orally, 5 hr, read-out: Inhibition (%) 5 hr
[12] = 10 mg/kg orally, 6 hr, read-out: Inhibition (%) 6 hr
[13] = 1 hr, read-out: Inhibition (%) 1 hr
[14] = 2 hr, read-out: Inhibition (%) 2 hr
[15] = 3 hr, read-out: Inhibition (%) 3 hr
[16] = 4 hr, read-out: Inhibition (%) 4 hr
[17] = 5 hr, read-out: Inhibition (%) 5 hr
[18] = 6 hr, read-out: Inhibition (%) 6 hr

Row | Structure (SMILES) | inhibition in vivo at 10 mg/kg [7] [%] | inhibition in vivo at 10 mg/kg [8] [%] | inhibition in vivo at 10 mg/kg [9] [%] | inhibition in vivo at 10 mg/kg [10] [%] | inhibition in vivo at 10 mg/kg [11] [%] | inhibition in vivo at 10 mg/kg [12] [%] | other results
1 | CC(C(=O)O)c1ccc2c(c1)C(=O)Cc1ccccc1S2 (centres unmarked) [Compound 2, 2-(10,11-dihydro-11-oxodibenzo[b,f]thiepin-2-yl)-propionic acid] |  |  |  |  |  |  | inhibition in vivo at 1 mg/kg [1]: 53.8%; inhibition in vivo at 10 mg/kg [1]: 55%; inhibition in vivo at 1 mg/kg [2]: 57.3%; inhibition in vivo at 10 mg/kg [2]: 76.3%; inhibition in vivo at 1 mg/kg [3]: 70.9%; inhibition in vivo at 10 mg/kg [3]: 78%; inhibition in vivo at 1 mg/kg [4]: 69.6%; inhibition in vivo at 10 mg/kg [4]: 78.5%; inhibition in vivo at 1 mg/kg [5]: 68.7%; inhibition in vivo at 10 mg/kg [5]: 74.8%; inhibition in vivo at 1 mg/kg [6]: 65.6%; inhibition in vivo at 10 mg/kg [6]: 70%
2 | CC(C(N)=O)c1ccc2c(c1)CCc1ccccc1O2 (centres unmarked) [Compound 15, 2-(10,11-dihydrodibenzo[b,f]oxepin-2-yl)-propionamide] | 36.1 | 44.1 | 53.3 | 48.7 | 33 | 27.2 | 
3 | CC(C(=O)O)c1cccc2c1Oc1ccccc1CC2=O (centres unmarked) [Compound 18, 2-(10,11-dihydro-11-oxodibenzo[b,f]oxepin-4-yl)-propionic acid] |  |  |  |  |  |  | inhibition in vivo at 8 mg/kg [13]: 34.3%; inhibition in vivo at 8 mg/kg [14]: 36.4%; inhibition in vivo at 8 mg/kg [15]: 38.3%; inhibition in vivo at 8 mg/kg [16]: 36.1%; inhibition in vivo at 8 mg/kg [17]: 36.1%; inhibition in vivo at 8 mg/kg [18]: 35.1%
4 | CC(C(N)=O)c1ccc2c(c1)CCc1ccccc1S2 (centres unmarked) [Compound 30, 2-(10,11-dihydrodibenzo[b,f]thiepin-2-yl)-propionamide] |  |  |  |  |  |  | inhibition in vivo at 5 mg/kg [13]: 21.4%; inhibition in vivo at 5 mg/kg [14]: 56.4%; inhibition in vivo at 5 mg/kg [15]: 59%; inhibition in vivo at 5 mg/kg [16]: 52.8%; inhibition in vivo at 5 mg/kg [17]: 38.6%; inhibition in vivo at 5 mg/kg [18]: 27.3%
5 | CC(C(=O)O)c1ccc2c(c1)CCc1cccnc1O2 (centres unmarked) [Compound 27, 2-(5,6-dihydrobenzo[b]pyrido[3,2-f]oxepin-8yl)-propionic acid] |  |  |  |  |  |  | inhibition in vivo at 5 mg/kg [13]: 68%; inhibition in vivo at 5 mg/kg [14]: 83.5%; inhibition in vivo at 5 mg/kg [15]: 79%; inhibition in vivo at 5 mg/kg [16]: 81%; inhibition in vivo at 5 mg/kg [17]: 70.6%; inhibition in vivo at 5 mg/kg [18]: 61.5%
6 | CCOC(=O)C(C)c1ccc2c(c1)Sc1ccccc1CC2 (centres unmarked) [Compound 8, Ethyl 2-(10,11-dihydrodibenzo[b,f]thiepin-3-yl)-propionate] | 43.2 | 37.8 | 26.9 | 20.1 | 15.8 | 15.1 | 
7 | CC(C(=O)O)c1ccc2c(c1)C(=O)Cc1ccccc1O2 (centres unmarked) [Compound 12, 2-(10,11-dihydro-11-oxodibenzo[b,f]oxepin-2-yl)-propionic acid] |  |  |  |  |  |  | inhibition in vivo at 10 mg/kg [1]: 34.2%; inhibition in vivo at 10 mg/kg [2]: 58.3%; inhibition in vivo at 10 mg/kg [3]: 79.4%; inhibition in vivo at 10 mg/kg [4]: 83.1%; inhibition in vivo at 10 mg/kg [5]: 71.1%; inhibition in vivo at 10 mg/kg [6]: 51.4%
8 | CCOC(=O)C(C)c1ccc2c(c1)CCc1ccccc1S2 (centres unmarked) [Compound 5, Ethyl 2-(10,11-dihydrodibenzo[b,f]thiepin-2-yl)-propionate] | 56.6 | 68 | 67.4 | 52.2 | 38.7 | 29.3 | 
9 | CC(C(=O)O)c1ccc2c(c1)Sc1ccccc1CC2 (centres unmarked) [Compound 9, 2-(10,11-dihydrodibenzo[b,f]thiepin-3-yl)-propionic acid] | 52.1 | 41 | 27.5 | 21.3 | 16.6 | 16.3 | 
10 | O=C(O)c1ccccc1Nc1cccc(C(F)(F)F)c1 [Flufenamic acid, reference compound] | -2.9 | 23.9 | 26.8 | 29.5 | 23.8 | 15.4 | inhibition in vivo at 5 mg/kg [13]: 6.8%; inhibition in vivo at 5 mg/kg [14]: 25.9%; inhibition in vivo at 5 mg/kg [15]: 26.2%; inhibition in vivo at 5 mg/kg [16]: 25.3%; inhibition in vivo at 5 mg/kg [17]: 16%; inhibition in vivo at 5 mg/kg [18]: 10.6%
11 | CC(C(=O)O)c1ccc2c(c1)Sc1ncccc1CC2 (centres unmarked) [Compound 24, 2-(5,6-dihydrobenzo[b]pyrido[3,2-f]thiepin-9yl)-propionic acid] | 19.6 | 52.1 | 49.9 | 38.3 | 28.2 | 27.2 | 
12 | CCOC(=O)C(C)c1ccc2c(c1)CCc1cccnc1O2 (centres unmarked) [Compound 28] |  |  |  |  |  |  | inhibition in vivo at 5 mg/kg [13]: 11.7%; inhibition in vivo at 5 mg/kg [14]: 35.1%; inhibition in vivo at 5 mg/kg [15]: 50.9%; inhibition in vivo at 5 mg/kg [16]: 55.4%; inhibition in vivo at 5 mg/kg [17]: 47.1%; inhibition in vivo at 5 mg/kg [18]: 37.7%
13 | CC(C(N)=O)c1cccc2c1Oc1ccccc1CC2=O (centres unmarked) [Compound 17, 2-(10,11-dihydro-11-oxodibenzo[b,f]oxepin-4-yl)-propionamide] | 65.9 | 49.4 | 35.4 | 29 | 17.2 | 13 | 
14 | CC(C(=O)O)c1ccc2c(c1)CCc1ccccc1O2 (centres unmarked) [Compound 13, 2-(10,11-dihydrodibenzo[b,f]oxepin-2-yl)-propionic acid] | 42.4 | 55.5 | 65.4 | 63.3 | 49.1 | 33.3 | 
15 | CC(C(N)=O)c1ccc2c(c1)C(=O)Cc1ccccc1S2 (centres unmarked) [Compound 1, 2-(10,11-dihydro-11-oxodibenzo[b,f]thiepin-2-yl)-propionamide] | 47.1 | 66.7 | 70.5 | 73.6 | 68 | 66 | 
16 | CCOC(=O)C(C)c1ccc2c(c1)Sc1ccccc1CC2=O (centres unmarked) [Compound 7, Ethyl 2-(10,11-dihydro-11-oxodibenzo[b,f]thiepin-3-yl)-propionate] | 58.7 | 39.6 | 31.2 | 25.9 | 22.3 | 18.8 | 
17 | CC(C(=O)O)c1ccc2c(c1)Oc1ccccc1CC2=O (centres unmarked) [Compound 16, 2-(10,11-dihydro-11-oxodibenzo[b,f]oxepin-3-yl)-propionic acid] | 53.6 | 49.9 | 50.7 | 46.2 | 37 | 26.2 | 
18 | CC(C(N)=O)c1ccc2c(c1)CCc1cccnc1O2 (centres unmarked) [Compound 29, 2-(5,6-dihydrobenzo[b]pyrido[3,2-f]oxepin-8-yl)-propionamide] |  |  |  |  |  |  | inhibition in vivo at 5 mg/kg [13]: 18.1%; inhibition in vivo at 5 mg/kg [14]: 38.3%; inhibition in vivo at 5 mg/kg [15]: 53.5%; inhibition in vivo at 5 mg/kg [16]: 53.8%; inhibition in vivo at 5 mg/kg [17]: 46.2%; inhibition in vivo at 5 mg/kg [18]: 42.9%
19 | CC(C(=O)O)c1cccc2c1Oc1ccccc1CC2 (centres unmarked) [Compound 19, 2-(10,11-dihydrodibenzo[b,f]oxepin-4-yl)-propionic acid] | 45.1 | 51.3 | 28.2 | 25.1 | 18.7 | 10.2 | 
20 | CCOC(=O)C(C)c1ccc2c(c1)Sc1ncccc1CC2 (centres unmarked) [Compound 25, Ethyl 2-(5,6-dihydrobenzo[b]pyrido[3,2-f]thiepin-9-yl)-propionate] | 42.8 | 57.7 | 61 | 52.7 | 33.4 | 29.2 | 
21 | CCCCC1C(=O)N(c2ccccc2)N(c2ccccc2)C1=O [Phenyl butazone, reference compound] | 12.4 | 23.7 | 27.4 | 20 | 14.4 | 8.6 | inhibition in vivo at 5 mg/kg [14]: 22.7%; inhibition in vivo at 5 mg/kg [15]: 21.1%; inhibition in vivo at 5 mg/kg [16]: 22.2%; inhibition in vivo at 5 mg/kg [17]: 13.1%; inhibition in vivo at 5 mg/kg [18]: 13.6%
22 | CC(C(=O)O)c1ccc2c(c1)CCc1ccccc1S2 (centres unmarked) [Compound 4, 2-(10,11-dihydrodibenzo[b,f]thiepin-2-yl)-propionic acid] | 47.2 | 58.8 | 54.6 | 48.3 | 41 | 35 | 
